According to PubChem BioAssay AID330 (DTP/NCI, 2004):
Values joined by “and” are separate entries in the source; they are usually repeats but may differ in a detail not shown here. Equal entries are not always repeated. Inconclusive results and toxic doses are left out.

Test system: P388 leukemia ip, CD2F1 mice, survival T/C
Test: NCI In Vivo Anticancer Drug Screen. Data for tumor model P388 Leukemia (intraperitoneal) in CD2F1 (CDF1) mice
Conditions: endpoint: median survival time, higher = longer survival
Procedure, shortened: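 Mice carrying the transplanted tumor received test compound or vehicle. Survival was recorded in each group, and the value is the treated-group measurement divided by that of the vehicle-treated control group.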

[1] = dose: 50.0 mg/kg/injection, schedule: Q01DX005 (ip), vehicle: saline with Tween-80
[2] = dose: 100.0 mg/kg/injection, schedule: Q01DX005 (ip), vehicle: saline with Tween-80
[3] = dose: 200.0 mg/kg/injection, schedule: Q01DX005 (ip), vehicle: saline with Tween-80
[4] = dose: 60.0 mg/kg/injection, schedule: Q01DX005 (ip), vehicle: saline
[5] = dose: 120.0 mg/kg/injection, schedule: Q01DX005 (ip), vehicle: saline
[6] = dose: 240.0 mg/kg/injection, schedule: Q01DX005 (ip), vehicle: saline
[7] = dose: 50.0 mg/kg/injection, schedule: Q01DX005 (ip), vehicle: Klucel (hydroxypropylcellulose) (HPC)

In the case of `COc1c2occc2c(CN)c2ccc(=O)oc12`, the T/C (dose: 7.5 mg/kg/injection, schedule: Q01DX005 (ip), vehicle: saline) was 98 % of control, the T/C (dose: 15.0 mg/kg/injection, schedule: Q01DX005 (ip), vehicle: saline) was 99 % of control and the T/C (dose: 30.0 mg/kg/injection, schedule: Q01DX005 (ip), vehicle: saline) was 97 % of control.

`NNC(=O)c1cc2c(cn1)[nH]c1ccccc12` was tested, and the T/C (dose: 12.5 mg/kg/injection, schedule: Q01DX009 (ip), vehicle: other) was 101 % of control, the T/C (dose: 25.0 mg/kg/injection, schedule: Q01DX009 (ip), vehicle: other) was 98 % of control and the T/C (dose: 50.0 mg/kg/injection, schedule: Q01DX009 (ip), vehicle: other) was 97 % of control. For the same compound, the T/C (dose: 100.0 mg/kg/injection, schedule: Q01DX009 (ip), vehicle: other) was 92 % of control and the T/C (dose: 200.0 mg/kg/injection, schedule: Q01DX009 (ip), vehicle: other) was 101 % of control.

`C[C@]12Cc3cnc(N)nc3C[C@@H]1CC[C@@H]1[C@@H]2CC[C@@]2(C)[C@H]1CC[C@]2(C)O` was tested, and the T/C [1] was 99 % of control, the T/C [2] was 89 % of control and the T/C [3] was 89 % of control.

For `O=C(Cc1nc2ccccc2nc1CC(=O)c1cccnc1)c1cccnc1`, the T/C (dose: 60.0 mg/kg/injection, schedule: Q01DX005 (ip), vehicle: saline with Tween-80) was 102 % of control, the T/C (dose: 120.0 mg/kg/injection, schedule: Q01DX005 (ip), vehicle: saline with Tween-80) was 93 % of control and the T/C (dose: 240.0 mg/kg/injection, schedule: Q01DX005 (ip), vehicle: saline with Tween-80) was 93 % of control.

For `O=C1C=CC2=C3c4cc(O)c(O)cc4CC3(O)COC2=C1O` (centres undefined), the T/C (dose: 6.25 mg/kg/injection, schedule: Q01DX009 (ip), vehicle: saline) was 102 % of control, the T/C (dose: 12.5 mg/kg/injection, schedule: Q01DX009 (ip), vehicle: saline) was 108 % of control and the T/C (dose: 25.0 mg/kg/injection, schedule: Q01DX009 (ip), vehicle: saline) was 118 % of control. The T/C (dose: 50.0 mg/kg/injection, schedule: Q01DX009 (ip), vehicle: saline) was 108 % of control.

With `Cc1[nH]c2ccc(CN)cc2c1CC(N)C(=O)O` (centres undefined) the T/C (dose: 100.0 mg/kg/injection, schedule: Q01DX001 (ip), vehicle: saline) was 110 % of control, the T/C (dose: 200.0 mg/kg/injection, schedule: Q01DX001 (ip), vehicle: saline) was 104 % of control and the T/C (dose: 400.0 mg/kg/injection, schedule: Q01DX001 (ip), vehicle: saline) was 107 % of control.

In the case of `COC1C(O)CC(OC2CC(OC3CC(O[C@@H]4C(=O)c5c(cc6cc(OC7CC(OC8CC(O)C(O)C(C)O8)C(O)C(C)O7)c(C)c(O)c6c5O)C[C@H]4[C@H](OC)C(=O)[C@@H](O)[C@@H](C)O)OC(C)C3O)OC(C)C2O)OC1C` (some centres undefined), the T/C (dose: 375.0 micrograms/kg/injection, schedule: Q01DX009 (ip), vehicle: saline) was 121 % of control and the T/C (dose: 1500.0 micrograms/kg/injection, schedule: Q01DX009 (ip), vehicle: saline) was 170 % of control.

`NS(=O)(=O)c1ccc(N=c2c3ccccc3n(Cc3ccccc3)c3ccccc23)cc1` was tested, and the T/C [1] was 88 % of control and the T/C [2] was 94 % of control.

For `C1CCC2(CC1)SCC1COCN12` (centres undefined), the T/C (dose: 100.0 mg/kg/injection, schedule: Q04DX003 (ip), vehicle: saline with Tween-80) was 103 % of control, the T/C (dose: 200.0 mg/kg/injection, schedule: Q04DX003 (ip), vehicle: saline with Tween-80) was 97 % of control and the T/C (dose: 400.0 mg/kg/injection, schedule: Q04DX003 (ip), vehicle: saline with Tween-80) was 103 % of control.

`CC(C)C1CS1=O` (centres undefined) was tested, and the T/C [4] was 97 % of control, the T/C [5] was 97 % of control and the T/C [6] was 109 % of control.

For `CN1CCCN2CCCN(C)P12`, the T/C (dose: 6.25 mg/kg/injection, schedule: Q01DX005 (ip), vehicle: saline) was 99 % of control, the T/C (dose: 12.5 mg/kg/injection, schedule: Q01DX005 (ip), vehicle: saline) was 98 % of control and the T/C (dose: 25.0 mg/kg/injection, schedule: Q01DX005 (ip), vehicle: saline) was 105 % of control.

`CCC(C)n1c(C)nc2ncn(-c3ccccc3)c2c1=O` (centres undefined) was tested, and the T/C [7] was 100 % of control, the T/C (dose: 100.0 mg/kg/injection, schedule: Q01DX005 (ip), vehicle: Klucel (hydroxypropylcellulose) (HPC)) was 103 % of control and the T/C (dose: 200.0 mg/kg/injection, schedule: Q01DX005 (ip), vehicle: Klucel (hydroxypropylcellulose) (HPC)) was 105 % of control.

With `N/N=C1/C(=O)N(c2cccc([N+](=O)[O-])c2)C(=O)C1C(=O)Nc1cccc([N+](=O)[O-])c1` (centres undefined) the T/C (dose: 37.5 mg/kg/injection, schedule: Q01DX005 (ip), vehicle: saline with Tween-80) was 101 % of control, the T/C (dose: 75.0 mg/kg/injection, schedule: Q01DX005 (ip), vehicle: saline with Tween-80) was 100 % of control and the T/C (dose: 150.0 mg/kg/injection, schedule: Q01DX005 (ip), vehicle: saline with Tween-80) was 105 % of control.

For `Nc1nc(N)c(CCCOc2ccc(C(=O)O)cc2)c(N)n1`, the T/C (dose: 60.0 mg/kg/injection, schedule: Q01DX005 (ip), vehicle: Klucel (hydroxypropylcellulose) (HPC)) was 93 % of control and the T/C (dose: 120.0 mg/kg/injection, schedule: Q01DX005 (ip), vehicle: Klucel (hydroxypropylcellulose) (HPC)) was 97 % of control.

`N#Cc1c(-c2ccc(Cl)cc2)c(-c2ccc(Cl)cc2)nn(CCOC(=O)CN)c1=O` was tested, and the T/C (dose: 3.13 mg/kg/injection, schedule: Q01DX005 (ip), vehicle: distilled water + Tween-80) was 99 % of control and 100 % of control, the T/C (dose: 6.25 mg/kg/injection, schedule: Q01DX005 (ip), vehicle: distilled water + Tween-80) was 100 % of control and 103 % of control and the T/C (dose: 12.5 mg/kg/injection, schedule: Q01DX005 (ip), vehicle: distilled water + Tween-80) was 105 % of control and 115 % of control and 97 % of control. The T/C (dose: 12.5 mg/kg/injection, schedule: Q04DX002 (ip), vehicle: distilled water + Tween-80) was 103 % of control, the T/C (dose: 25.0 mg/kg/injection, schedule: Q01DX005 (ip), vehicle: distilled water + Tween-80) was 108 % of control and 120 % of control (2×) and the T/C (dose: 25.0 mg/kg/injection, schedule: Q04DX002 (ip), vehicle: distilled water + Tween-80) was 111 % of control and 112 % of control. For the same compound, the T/C (dose: 50.0 mg/kg/injection, schedule: Q01DX005 (ip), vehicle: distilled water + Tween-80) was 155 % of control and the T/C (dose: 50.0 mg/kg/injection, schedule: Q01DX005 (ip), vehicle: saline) was 116 % of control.

For `Cc1cc(N)ccc1N=Nc1ccc(N=Nc2ccc(N=Nc3ccc4cc(S(=O)(=O)O)cc(S(=O)(=O)O)c4c3)c(C)c2)c(C)c1`, the T/C [1] was 114 % of control and 122 % of control, the T/C [2] was 115 % of control and 118 % of control and 124 % of control and the T/C [3] was 115 % of control.

With `CN(C)CCNc1ccc(O)c2c1C(=O)c1ccccc1C2=O` the T/C (dose: 5.0 mg/kg/injection, schedule: Q01DX009 (ip), vehicle: acid diluted with saline) was 104 % of control, the T/C (dose: 10.0 mg/kg/injection, schedule: Q01DX009 (ip), vehicle: acid diluted with saline) was 100 % of control and the T/C (dose: 20.0 mg/kg/injection, schedule: Q01DX009 (ip), vehicle: acid diluted with saline) was 100 % of control. The T/C (dose: 20.0 mg/kg/injection, schedule: Q01DX009 (ip), vehicle: distilled water + Tween-80) was 110 % of control, the T/C (dose: 40.0 mg/kg/injection, schedule: Q01DX009 (ip), vehicle: acid diluted with saline) was 124 % of control and the T/C (dose: 40.0 mg/kg/injection, schedule: Q01DX009 (ip), vehicle: distilled water + Tween-80) was 117 % of control. The T/C (dose: 80.0 mg/kg/injection, schedule: Q01DX009 (ip), vehicle: acid diluted with saline) was 153 % of control and the T/C (dose: 160.0 mg/kg/injection, schedule: Q01DX009 (ip), vehicle: distilled water + Tween-80) was 153 % of control.

With `CCOC(=O)C1OC1(C)c1ccccc1` (centres undefined) the T/C (dose: 50.0 mg/kg/injection, schedule: Q01DX009 (ip), vehicle: saline with Tween-80) was 102 % of control, the T/C (dose: 100.0 mg/kg/injection, schedule: Q01DX009 (ip), vehicle: saline with Tween-80) was 100 % of control and the T/C (dose: 200.0 mg/kg/injection, schedule: Q01DX009 (ip), vehicle: saline with Tween-80) was 107 % of control.

In the case of `O=C(Cc1ccccc1)OCC1=CCN2CC[C@@H](O)[C@@H]12`, the T/C (dose: 15.0 mg/kg/injection, schedule: Q01DX009 (ip), vehicle: saline + alcohol) was 97 % of control, the T/C (dose: 30.0 mg/kg/injection, schedule: Q01DX009 (ip), vehicle: saline + alcohol) was 99 % of control and the T/C (dose: 60.0 mg/kg/injection, schedule: Q01DX009 (ip), vehicle: saline + alcohol) was 97 % of control. For the same compound, the T/C (dose: 120.0 mg/kg/injection, schedule: Q01DX009 (ip), vehicle: saline + alcohol) was 109 % of control, the T/C (dose: 240.0 mg/kg/injection, schedule: Q01DX009 (ip), vehicle: saline + alcohol) was 105 % of control and the T/C (dose: 480.0 mg/kg/injection, schedule: Q01DX009 (ip), vehicle: saline + alcohol) was 116 % of control.

For `CCOc1ccc(NC(=S)NC2OC(COC(C)=O)C(OC(C)=O)C(OC(C)=O)C2OC(C)=O)cc1` (centres undefined), the T/C [1] was 101 % of control, the T/C [2] was 91 % of control and the T/C [3] was 92 % of control.

`COC(=O)C1(C#N)CC1` was tested, and the T/C [4] was 113 % of control, the T/C [5] was 96 % of control and the T/C [6] was 103 % of control.

For `N#Cc1ccoc1`, the T/C (dose: 12.5 mg/kg/injection, schedule: Q01DX005 (ip), vehicle: Klucel (hydroxypropylcellulose) (HPC)) was 93 % of control, the T/C (dose: 25.0 mg/kg/injection, schedule: Q01DX005 (ip), vehicle: Klucel (hydroxypropylcellulose) (HPC)) was 102 % of control and the T/C [7] was 104 % of control.
